Reference: US20240109868A1, “EP300/CBP MODULATOR, PREPARATION METHOD THEREFOR AND USE THEREOF” (Miracure Biotechnology Limited, priority 2022, published 2024)

How the values were obtained:
22Rv1 Cell = test: 22RV1 cell growth inhibition, CellTiter-Glo, 72 h; type: cell-based; details: 22RV1 cells, 72 h culture
How it was run: (§1)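 Cells seeded at 5×10^3/well overnight in RPMI-1640/10% FBS, then exposed to compound (0.5% DMSO final) for 72 h at 37 °C.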

vCap Cell = test: vCap cell growth inhibition, CellTiter-Glo, 72 h; type: cell-based; details: vCap cells, 72 h culture
How it was run: as §1

Row | SMILES | IC50 (22Rv1 Cell; Homo sapiens, 22Rv1, 72 h) | IC50 (vCap Cell; Homo sapiens, VCaP, 72 h) | IC50 (22Rv1 Cell) | IC50 (vCap Cell)
1 | CC(=O)N1Cc2cc(-c3ccn(C)c(=O)c3)cc(N3CCCc4cc(-c5cnn(C)c5)c(C(F)F)cc43)c2C1 [Compound M001128] | > 1000 nM | > 1000 nM |  | 
2 | CNC(=O)N1Cc2cc([C@H]3CC[C@H](O)CC3)cc(N3CCCc4cc(-c5cnn(C)c5)c(C(F)F)cc43)c2C1 [Compound M001193] | > 1000 nM | > 1000 nM |  | 
3 | CCN1CCC(c2cc3c(c(N4CCCc5cc(-c6cnn(C)c6)c(C(F)F)cc54)c2)CN(C(C)=O)C3)CC1=O (stereo not drawn) [Compound M001189] | < 1000 nM | < 1000 nM |  | 
4 | CC(=O)N1Cc2cc(N3CCOCC3)cc(N3CCCc4cc(-c5cnn(C)c5)c(C(F)F)cc43)c2C1 [Compound M001001] | > 1000 nM | > 1000 nM |  | 
5 | CNC(=O)N1CCc2cc(N3CCS(=O)(=O)CC3)cc(N3CCCc4cc(-c5cnn(C)c5)c(C(F)F)cc43)c2C1 [Compound M001021] | > 1000 nM | > 1000 nM |  | 
6 | CC(=O)N1Cc2cc(C3CC4CCC(C3)N4)cc(N3CCCc4cc(-c5cnn(C)c5)c(C(F)F)cc43)c2C1 (stereo not drawn) [Compound M001052] | > 1000 nM | > 1000 nM |  | 
7 | CC(=O)N1Cc2cc(C3CCN(C(=O)C4CCNC4)CC3)cc(N3CCCc4cc(-c5cnn(C)c5)c(C(F)F)cc43)c2C1 (stereo not drawn) [Compound M001080] | > 1000 nM | > 1000 nM |  | 
8 | CC(=O)N1Cc2cc([C@H]3CC[C@@H](O)CC3)cc(N3CCCc4cc(-c5cnn(C)c5)c(C(F)F)cc43)c2C1 [Compound M001195] | > 1000 nM | < 1000 nM |  | 
9 | CC(=O)N1Cc2cc(N3CCNCC3)cc(N3CCCc4cc(-c5cnn(C)c5)c(C(F)F)cc43)c2C1 [Compound M001002] | > 1000 nM | > 1000 nM |  | 
10 | CS[C@H]1CC[C@@H](c2cc3c(c(N4CCCc5cc(-c6cnn(C)c6)c(C(F)F)cc54)c2)CN(C(C)=O)C3)CC1 [Compound M001322] | > 1000 nM | > 1000 nM |  | 
11 | CC(=O)N1Cc2cc([C@H]3CC[C@@H](S(C)(=O)=O)CC3)cc(N3CCCc4cc(-c5cnn(C)c5)c(C(F)F)cc43)c2C1 [Compound M001299] | < 1000 nM | < 1000 nM |  | 
12 | CNC(=O)N1Cc2cc(C3CCN(C(=O)C4CC4)CC3)cc(N3CCCc4cc(-c5cnn(C)c5)c(C(F)F)cc43)c2C1 [Compound M001162] | > 1000 nM | > 1000 nM |  | 
13 | CC(=O)N1Cc2cc(C3CCC(=O)N(CC(C)(C)O)C3)cc(N3CCCc4cc(-c5cnn(C)c5)c(C(F)F)cc43)c2C1 (stereo not drawn) [Compound M001231] | < 1000 nM | < 1000 nM |  | 
14 | CNC(=O)N1Cc2cc(C3CC4CCC(C3)N4C(=O)OC)cc(N3CCCc4cc(-c5cnn(C)c5)c(C(F)F)cc43)c2C1 (stereo not drawn) [Compound M001137] | > 1000 nM | > 1000 nM |  | 
15 | CC(=O)N1Cc2cc(C3CCC([S@@](C)(=N)=O)CC3)cc(N3CCCc4cc(-c5cnn(C)c5)c(C(F)F)cc43)c2C1 (stereo partly drawn) [Compound M001329] |  |  | > 1000 nM | > 1000 nM
16 | CC(=O)N1CCc2cc(-c3cc[nH]c(=O)c3)cc(N3CCCc4cc(-c5cnn(C)c5)c(C(F)F)cc43)c2C1 [Compound M001153] | > 1000 nM | > 1000 nM |  | 
17 | Cn1cc(-c2cc3c(cc2C(F)F)N(c2cccc4c2CN(C(=O)C2CC2)CCC4)CCC3)cn1 [Compound M001214] | > 1000 nM | > 1000 nM |  | 
18 | CN1CCC(c2cc3c(c(N4CCCc5cc(-c6cnn(C)c6)c(C(F)F)cc54)c2)CN(C(=O)C2CC2)C3)CC1=O (stereo not drawn) [Compound M001164] | > 1000 nM | > 1000 nM |  | 
19 | CC(=O)N1Cc2cc(C3CCNC3)cc(N3CCCc4cc(-c5cnn(C)c5)c(C(F)F)cc43)c2C1 (stereo not drawn) [Compound M001046] | > 1000 nM | > 1000 nM |  | 
20 | CC(=O)N1Cc2cc(C3CNC(=O)OC3)cc(N3CCCc4cc(-c5cnn(C)c5)c(C(F)F)cc43)c2C1 (stereo not drawn) [Compound M001246] | > 1000 nM | > 1000 nM |  | 
21 | CC(=O)N1Cc2cc(C3CCN(C(C)=O)C3)cc(N3CCCc4cc(-c5cnn(C)c5)c(C(F)F)cc43)c2C1 (stereo not drawn) [Compound M001053] | > 1000 nM | < 1000 nM |  | 
